Bridge positions count the residues as written; N and C are the ends. Square brackets hold non-standard residues; d marks the D form. Peptide text beside a SMILES is read from it. R8 = C=CCCCCCC[C@@](C)(N)C(=O)O; S5 = C=CCCC[C@](C)(N)C(=O)O; Nle = CCCC[C@H](N)C(=O)O

The test system of one data set is E. coli. Type of data set: cell-based, Escherichia coli. The procedure, abridged:
(§1)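 Microdilution MIC test in polyanion-depleted MHB, with a final inoculum of 5×10^5 CFU/ml and 20-24 h incubation at 37° C.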

A further data set concerns B. cereus. Type of data set: cell-based, Bacillus cereus. In short, it runs like this: as §1
The subject of another data set is S. aureus. The format is cell-based, Staphylococcus aureus. In short, it runs like this:
as §1

The next data set relates to P. aeruginosa. The format is cell-based, Pseudomonas aeruginosa. In short, it runs like this: as §1
The test system of another data set is human red blood cells. Type of data set: cell-based. The following applies: red cells of human, 1 h, 25. The procedure, abridged: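 Washed human RBCs as 1% (v/v) suspension in phosphate-buffered saline incubated 1 h at 37° C with serially diluted peptides. Hemoglobin release in supernatant measured spectrophotometrically (570 nm), % hemolysis relative to untreated and 1% Triton-X100 controls; MHC defined as concentration giving less than 1% release.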

Regarding `CCCC[C@H](NC(=O)[C@]1(C)CCCC=CCCC[C@](C)(NC(=O)[C@H](C)NC(=O)[C@H](CCCCN)NC(=O)CNC(=O)[C@H](Cc2ccccc2)NC(=O)[C@H](CCCCN)NC(=O)[C@H](CCCCN)NC(=O)[C@H](C)NC(=O)[C@H](CO)NC(=O)[C@H](Cc2c[nH]cn2)NC(=O)[C@H](CC(C)C)NC(=O)[C@H](Cc2ccccc2)NC(=O)[C@H](CCC(=O)O)NC(=O)CNC(=O)[C@@H](NC(=O)CN)[C@@H](C)CC)C(=O)N[C@@H](C(C)C)C(=O)NCC(=O)N[C@@H](CCC(=O)O)C(=O)N1)C(=O)N[C@@H](CC(N)=O)C(=O)N[C@@H](CO)C(N)=O` [Mag(i + 4)15(K4E), GIGEFLHSAKKFGKAXVGEXBNS] (H-GIGEFLHSAKKFGKA[S5]VGE[S5][Nle]NS-NH2; staple 16-20), in the data set on E. coli, the “MIC E. coli” value came to 12.5 µg/mL. Also, the “MIC B. cereus” value in the data set on B. cereus stood at 50 µg/mL. Further, the “MIC S. aureus” value in the data set with S. aureus was greater than 50 µg/mL. Also, in the data set on P. aeruginosa, the “MIC P. aeruginosa” value was greater than 50 µg/mL. In the data set with human red blood cells, the “% Hemolysis at 25 μg/ml” value is 2.2%.
In the case of `CCCC[C@H](NC(=O)[C@@H](NC(=O)[C@H](CCC(=O)O)NC(=O)CNC(=O)[C@@H](NC(=O)[C@H](Cc1ccccc1)NC(=O)[C@H](C)NC(=O)[C@H](CCCCN)NC(=O)CNC(=O)[C@H](Cc1ccccc1)NC(=O)[C@H](CCCCN)NC(=O)[C@H](CCCCN)NC(=O)[C@H](C)NC(=O)[C@H](CO)NC(=O)[C@]1(C)CCCC=CCCC[C@](C)(NC(=O)[C@@H](NC(=O)CN)[C@@H](C)CC)C(=O)N[C@@H](CCCCN)C(=O)N[C@@H](Cc2ccccc2)C(=O)N[C@@H](CC(C)C)C(=O)N1)C(C)C)[C@@H](C)CC)C(=O)N[C@@H](CC(N)=O)C(=O)N[C@@H](CO)C(N)=O` [Mag(i + 4)2] (H-GI[S5]KFL[S5]SAKKFGKAFVGEI[Nle]NS-NH2; staple 3-7), the “MIC E. coli” value with E. coli came out at 3.1 µg/mL. Besides, the “MIC B. cereus” value against B. cereus came out at 12.5 µg/mL. In addition, in the data set on S. aureus, the “MIC S. aureus” value is 12.5 µg/mL. The “MIC P. aeruginosa” value in the data set on P. aeruginosa is 12.5 µg/mL. The “% Hemolysis at 25 μg/ml” value in the data set on human red blood cells is given as 19.6%.
On to `CCCC[C@H](NC(=O)[C@]1(C)CCCC=CCCC[C@](C)(NC(=O)[C@H](C)NC(=O)[C@H](CCCCN)NC(=O)CNC(=O)[C@H](Cc2ccccc2)NC(=O)[C@H](CCCCN)NC(=O)[C@H](CCCCN)NC(=O)[C@H](C)NC(=O)[C@H](CO)NC(=O)[C@H](Cc2c[nH]cn2)NC(=O)[C@H](CC(C)C)NC(=O)[C@H](Cc2ccccc2)NC(=O)[C@H](CCCCN)NC(=O)[C@H](CCCCN)NC(=O)[C@@H](NC(=O)CN)[C@@H](C)CC)C(=O)N[C@@H](C(C)C)C(=O)NCC(=O)N[C@@H](CCC(=O)O)C(=O)N1)C(=O)N[C@@H](CC(N)=O)C(=O)N[C@@H](CO)C(N)=O` [Mag(i + 4)15(G3K), GIKKFLHSAKKFGKAXVGEXBNS] (H-GIKKFLHSAKKFGKA[S5]VGE[S5][Nle]NS-NH2; staple 16-20), for which the “MIC E. coli” value with E. coli was 1.6 µg/mL. Also, the “MIC B. cereus” value against B. cereus was 6.2 µg/mL. Further, in the data set with S. aureus, the “MIC S. aureus” value turned out to be 12.5 µg/mL. Further, the “MIC P. aeruginosa” value in the data set with P. aeruginosa was found to be 3.1 µg/mL. The “% Hemolysis at 25 μg/ml” value in the data set with human red blood cells was found to be 3.8%.
As for `CCCC[C@H](NC(=O)[C@]1(C)CCCC=CCCC[C@](C)(NC(=O)[C@H](C)NC(=O)[C@H](CCCCN)NC(=O)CNC(=O)[C@H](Cc2ccccc2)NC(=O)[C@H](CCCCN)NC(=O)[C@H](CCCCN)NC(=O)[C@H](C)NC(=O)[C@H](CO)NC(=O)[C@H](CCC(=O)O)NC(=O)[C@H](CC(C)C)NC(=O)[C@H](Cc2ccccc2)NC(=O)[C@H](CCCCN)NC(=O)CNC(=O)[C@@H](NC(=O)CN)[C@@H](C)CC)C(=O)N[C@@H](C(C)C)C(=O)NCC(=O)N[C@@H](CCC(=O)O)C(=O)N1)C(=O)N[C@@H](CC(N)=O)C(=O)N[C@@H](CO)C(N)=O` [Mag(i + 4)15(H7E), GIGKFLESAKKFGKAXVGEXBNS] (H-GIGKFLESAKKFGKA[S5]VGE[S5][Nle]NS-NH2; staple 16-20), the “MIC E. coli” value in the data set on E. coli came out at 3.1 µg/mL. For the same compound, the “MIC B. cereus” value in the data set on B. cereus is 6.2 µg/mL. Also, in the data set with S. aureus, the “MIC S. aureus” value is 25 µg/mL. Besides, the “MIC P. aeruginosa” value against P. aeruginosa is 12.5 µg/mL. Also, the “% Hemolysis at 25 μg/ml” value in the data set with human red blood cells amounted to 2.9%.
The corresponding values for `CCCC[C@H](NC(=O)[C@]1(C)CCCC=CCCC[C@](C)(NC(=O)[C@H](C)NC(=O)[C@H](CCCCN)NC(=O)CNC(=O)[C@H](Cc2ccccc2)NC(=O)[C@H](CCCCN)NC(=O)[C@H](CCCCN)NC(=O)[C@H](C)NC(=O)[C@H](CO)NC(=O)[C@H](Cc2c[nH]cn2)NC(=O)[C@H](CCCCN)NC(=O)[C@H](Cc2ccccc2)NC(=O)[C@H](CCCCN)NC(=O)CNC(=O)[C@@H](NC(=O)CN)[C@@H](C)CC)C(=O)N[C@@H](C(C)C)C(=O)NCC(=O)N[C@@H](CCC(=O)O)C(=O)N1)C(=O)N[C@@H](CC(N)=O)C(=O)N[C@@H](CO)C(N)=O` [Mag(i + 4)15(L6K), GIGKFKHSAKKFGKAXVGEXBNS] (H-GIGKFKHSAKKFGKA[S5]VGE[S5][Nle]NS-NH2; staple 16-20) are 3.1 µg/mL, greater than 50 µg/mL, greater than 50 µg/mL, 12.5 µg/mL and 1.9%.
The corresponding values for `CCCC[C@H](NC(=O)[C@]1(C)CCCC=CCCC[C@](C)(NC(=O)[C@H](C)NC(=O)[C@H](CCCCN)NC(=O)[C@H](C)NC(=O)[C@H](Cc2ccccc2)NC(=O)[C@H](CCCCN)NC(=O)[C@H](CCCCN)NC(=O)[C@H](C)NC(=O)[C@H](CO)NC(=O)[C@H](Cc2c[nH]cn2)NC(=O)[C@H](CC(C)C)NC(=O)[C@H](Cc2ccccc2)NC(=O)[C@H](CCCCN)NC(=O)CNC(=O)[C@@H](NC(=O)CN)[C@@H](C)CC)C(=O)N[C@@H](C(C)C)C(=O)NCC(=O)N[C@@H](CCC(=O)O)C(=O)N1)C(=O)N[C@@H](CC(N)=O)C(=O)N[C@@H](CO)C(N)=O` [Mag(i + 4)15(G13A), GIGKFLHSAKKFAKAXVGEXBNS] (H-GIGKFLHSAKKFAKA[S5]VGE[S5][Nle]NS-NH2; staple 16-20) are 1.6 µg/mL, 3.1 µg/mL, 3.1 µg/mL, 6.2 µg/mL and 20.5%.
The corresponding values for `CCCC[C@H](NC(=O)[C@@H](NC(=O)[C@H](CCC(=O)O)NC(=O)CNC(=O)[C@@H](NC(=O)[C@H](Cc1ccccc1)NC(=O)[C@]1(C)CCCC=CCCCCCC[C@@](C)(NC(=O)[C@H](Cc2c[nH]cn2)NC(=O)[C@H](CC(C)C)NC(=O)[C@H](Cc2ccccc2)NC(=O)[C@H](CCCCN)NC(=O)CNC(=O)[C@@H](NC(=O)CN)[C@@H](C)CC)C(=O)N[C@@H](C)C(=O)N[C@@H](CCCCN)C(=O)N[C@@H](CCCCN)C(=O)N[C@@H](Cc2ccccc2)C(=O)NCC(=O)N[C@@H](CCCCN)C(=O)N1)C(C)C)[C@@H](C)CC)C(=O)N[C@@H](CC(N)=O)C(=O)N[C@@H](CO)C(N)=O` [Mag(i + 7)7] (H-GIGKFLH[R8]AKKFGK[S5]FVGEI[Nle]NS-NH2; staple 8-15 (inferred); N-terminus and C-terminus assumed) are 3.1 µg/mL, 3.1 µg/mL, 3.1 µg/mL, 6.2 µg/mL and 95.5%.
Take `CCCC[C@H](NC(=O)[C@@H](NC(=O)[C@H](CCC(=O)O)NC(=O)CNC(=O)[C@@H](NC(=O)[C@H](Cc1ccccc1)NC(=O)[C@H](C)NC(=O)[C@H](CCCCN)NC(=O)CNC(=O)[C@H](Cc1ccccc1)NC(=O)[C@H](CCCCN)NC(=O)[C@]1(C)CCCC=CCCCCCC[C@@](C)(NC(=O)[C@@H](NC(=O)CN)[C@@H](C)CC)C(=O)N[C@@H](CCCCN)C(=O)N[C@@H](Cc2ccccc2)C(=O)N[C@@H](CC(C)C)C(=O)N[C@@H](Cc2c[nH]cn2)C(=O)N[C@@H](CO)C(=O)N[C@@H](C)C(=O)N1)C(C)C)[C@@H](C)CC)C(=O)N[C@@H](CC(N)=O)C(=O)N[C@@H](CO)C(N)=O` [Mag(i + 7)2] (H-GI[R8]KFLHSA[S5]KFGKAFVGEI[Nle]NS-NH2; staple 3-10 (inferred); N-terminus and C-terminus assumed): the “MIC E. coli” value in the data set on E. coli worked out at 3.1 µg/mL. In addition, the “MIC B. cereus” value in the data set on B. cereus was determined as 6.2 µg/mL. In addition, in the data set on S. aureus, the “MIC S. aureus” value turned out to be 12.5 µg/mL. Moreover, the “MIC P. aeruginosa” value against P. aeruginosa was 12.5 µg/mL. Further, in the data set on human red blood cells, the “% Hemolysis at 25 μg/ml” value is recorded as 69.3%.
Regarding `CCCC[C@H](NC(=O)[C@@H](NC(=O)[C@]1(C)CCCC=CCCC[C@](C)(NC(=O)[C@H](CCCCN)NC(=O)CNC(=O)[C@H](Cc2ccccc2)NC(=O)[C@H](CCCCN)NC(=O)[C@H](CCCCN)NC(=O)[C@H](C)NC(=O)[C@H](CO)NC(=O)[C@H](Cc2c[nH]cn2)NC(=O)[C@H](CC(C)C)NC(=O)[C@H](Cc2ccccc2)NC(=O)[C@H](CCCCN)NC(=O)CNC(=O)[C@@H](NC(=O)CN)[C@@H](C)CC)C(=O)N[C@@H](Cc2ccccc2)C(=O)N[C@@H](C(C)C)C(=O)NCC(=O)N1)[C@@H](C)CC)C(=O)N[C@@H](CC(N)=O)C(=O)N[C@@H](CO)C(N)=O` [Mag(i + 4)14] (H-GIGKFLHSAKKFGK[S5]FVG[S5]I[Nle]NS-NH2; staple 15-19), the “MIC E. coli” value against E. coli stood at 1.6 µg/mL. Besides, the “MIC B. cereus” value in the data set on B. cereus was 3.1 µg/mL. The “MIC S. aureus” value in the data set on S. aureus came out at 3.1 µg/mL. In the data set with P. aeruginosa, the “MIC P. aeruginosa” value was 3.1 µg/mL. The “% Hemolysis at 25 μg/ml” value in the data set on human red blood cells is on record as 92.1%.

Values taken from patent US20200231638A1, “STABILIZED ANTI-MICROBIAL PEPTIDES” (priority 2015, published 2020).
